Experimental data from patent US20250101052A1, “COMPOUND FOR EGFR KINASE INHIBITOR, COMPOSITION, AND USE THEREOF” (INNOVATION INSTITUTE FOR ARTIFICIAL INTELLIGENCE IN …, priority 2021, published 2025).

Columns and labels:
[1] = target: EGFR^L858R/T790M/C797S kinase (Homo sapiens (Human), UniProt P00533, C797S/L858R/T790M); experiment: EGFR^L858R/T790M/C797S kinase inhibitory activity experiment; assay type: biochemical; settings: in vitro
Protocol: EGFRL^858R/T790M/C797S kinase inhibitory activity experiment: The compounds of the present invention have excellent in-vitro inhibitory activity against EGFR^L858R/T790M/C797S kinase
• Centrifuge (manufacturer: Eppendorf, model: 5430) • Microplate reader (manufacturer: Perkin Elmer, model: Caliper EZ ReaderII) • Echo 550 (manufacturer: Labcyte, model: Echo 550) • Experimental Method • Compound preparation: • A 10 mM storage solution was prepared.
(1) 1×Kinase buffer was prepared.
(2) Preparation of concentration gradient of compound: The tested compound has a test concentration starting from 1 μM, diluted 10 times, with 10 concentrations, and subjected to single-well or multi-well detection. The compound was diluted to a 100% DMSO solution with a final concentration of 100 times in a 384 source plate. […] of the compound at a final concentration of 100 times was transferred to the target plate 384-well-plate using the pipette Echo 550.
(3) A kinase solution with a final concentration of 2.5 times was prepared using 1× Kinase buffer.
(4) 10 μL of the kinase solution with the final concentration of 2.5 times was added to a compound well and a positive control well, respectively; 10 μL of 1×Kinase buffer was added to a negative control well.
(5) Centrifugation was conducted at 1000 rpm for 30 seconds, and the reaction plate was shaken and mixed well, and incubated at a room temperature for 10 minutes.
(6) A mixed solution of ATP with a final concentration of 5/3 times and Kinase substrate 22 was prepared using 1×Kinase buffer.
(7) A mixed solution of 15 μL of ATP with a final concentration of 5/3 times and a substrate was added for initial reaction.
(8) The 384-well-plate was centrifuged at 1000 rpm for 30 seconds, shaken and mixed well, and incubated at a room temperature for 60 minutes.
(9) 30 μL of a termination detection solution was added to stop the kinase reaction. Centrifugation was conducted at 1000 rpm for 30 seconds. Shaking and mixing well were conducted.
(10) The conversion rate was read using Caliper EZ Reader.
where Conversion %_sample is the conversion rate reading of the sample; Conversion %_min: the average value of negative control wells, representing the conversion rate reading of wells without enzyme activity; Conversion %_max: the average value of positive control wells, representing the conversion rate reading of wells without compound inhibition; % Inhibition represents the inhibition rate.
Fitting of Dose-Response Curve
Using the log value of concentration as the X-axis and the percentage inhibition rate as the Y-axis, the dose-response curve was fitted using the log(inhibitor) vs. response —Variable slope of the analysis software GraphPad Prism 5 to obtain the IC50 value of each compound on enzyme activity.

BaF3-EGFR^WT cells = experiment: BaF3 cell proliferation inhibition experiment (CCK-8); assay type: cell-based; settings: Mus musculus, BaF3; cell proliferation, 72 hours; read-out: BaF3-EGFR^WT (IC50 nM)
Protocol: (§1) A. Cell line: BaF3 cells with stable overexpression of wild-type genes are named BaF3-EGFR^WT, and BaF3 cells with stable overexpression of EGFR^L858R/T790M/C797S EGFR^del19/T790M/C797S EGFR^L858R/C797S and EGFR^del19/C797S mutant genes are named BaF3-EGFR^L858R/T790M/C797S BaF3-EGFR^del19/T790M/C797S BaF3-EGFR^L858R/C797S and BaF3-EGFR^del19/C797S cells, respectively. Mediums:
(§2) a) The medium was preheated in a 37° C. water bath.
(§3) b) The cryopreservation tube was taken from the liquid nitrogen tank, quickly placed in a 37° C. water bath, and melted completely within 1 minute.
(§4) c) The cell suspension was transferred to a 15 mL centrifuge tube containing a 10 mL medium and centrifuged at 1000 rpm for 4 minutes.
(§5) d) The supernatant was discarded, the cells were resuspended in a 1 mL medium and transferred to a […] culture dish containing a 10 mL medium, 20% serum and 50 ng/mL EGF were administered to the first-generation medium, and culture was conducted in a 37° C. and 5% CO2 incubator.
(§6) b) The cells in the culture dish were blown evenly with a 5 mL pipette, and 500 μL of the cells were pipetted out to be inoculated into a new […] culture dish and cultured in a 37° C. and 5% CO2 incubator.
(§7) a) The compound to be tested (10 mM stock solution) was diluted with 100% DMSO to 1 mM, and diluted with a culture solution in a 24-well plate to prepare of a working solution of 2 μM concentration.
(§8) b) The 2 μM working solution was diluted with a triple dilution method to obtain working solutions with approximate concentrations of 2 μM, 600 nM, 200 nM, 60 nM, and 20 nM.
(§9) a) The cells at the logarithmic growth phase were centrifuged at 1000 rpm for 4 minutes, resuspended with a medium (containing 10% serum and 50 ng/mL EGF), and counted.
(§10) b) The cells were inoculated into a 96-well plate with a cell density of 4000 cells/well, and placed in a 37° C. and 5% CO2 incubator for culture for 12 hours.
(§11) a) The prepared compound was added to a 96-well plate, with 100 μL per well. The final concentrations were 1 μM, 300 nM, 100 nM, 30 nM, 10 nM, and 0 nM, and the final concentration of DMSO was 0.2%. A medium served as a blank control.
(§12) b) The cells were placed in 37° C. and 5% CO2 incubator for culture for 72 hours.
(§13) (5) Cell Viability Testing
(§14) a) The 96-well cell culture plate was taken out, and 20 μL of a CCK-8 reagent (Cell Counting Kit-8, Topscience, Catalog No. C0005) was added in the dark.
(§15) b) Mixing well was conducted on a horizontal shaking table at a room temperature at 100 rpm for 5 minutes.
(§16) c) The culture plate was placed in a 37° C. constant-temperature incubator for incubation.
(§17) The data was analyzed using GraphPad Prism 8.0 software to obtain a fitted curve of activity of the compounds. The IC50 of the compounds was fitted from nonlinear regression equation.

[2] = tested on: BaF3-EGFR^del19/T790M/C797S cells; experiment: as above; assay type: cell-based; settings: Ba/F3 EGFR-Del19/T790M/C797S; cell proliferation, 72 hours; read-out: BaF3-EGFR^del19 /T790M/C797S (IC50 nM)
Protocol: as §1, §2, §3, §4, §5, §6, §7, §8, §9, §10, §11, §12, §13, §14, §15, §16, §17

[3] = tested on: BaF3-EGFR^L858R/T790M/C797S cells; experiment: as above; assay type: cell-based; settings: Ba/F3 EGFR-L858R, 72 hours
Source text: BaF3 cell proliferation inhibition experiment: The compounds of the present invention have excellent inhibitory activity against the proliferation of BaF3-EGFR^L858R/T790M/C797S cells
as §1, §2, §3, §4, §5, §6, §7, §8, §9, §10, §11, §12, §13, §14, §15, §16
d) Starting from the addition of the CCK-8, the absorbance at 450 nm was read using the TECAN microplate reader at 1 hour, 2 hours, and 3 hours, respectively.
as §17

A431 cells = experiment: A431 cell proliferation inhibition (SRB); assay type: cell-based; settings: Homo sapiens, A-431, wild-type EGFR, 72 hours
Protocol: A431 cell proliferation inhibition: The compounds of the present invention have good selectivity to wild-type EGFR
as §2, §3, §4, §5, §6, §7, §8, §9, §10, §11, §12, §13
a) The cell supernatant was discarded, rinsed once with 1×PBS, and fixed with 10% trichloroacetic acid for 1 hour. The trichloroacetic acid was discarded, excess trichloroacetic acid was washed off with tap water, and the 96-well plate was dried in a 60° C. oven.
b) 70 μL of an SRB stain was added to each well of the dry 96-well plate for staining at a room temperature for 30 minutes. Excess SRB stain was washed off with 1% glacial acetic acid, and the 96-well plate was dried in a 60° C. oven.
c) SRB was dissolved with 100 μL of 10 mM Tris-base solution. The absorbance was detected at 540 nm ultraviolet absorption using the microplate reader. The data was analyzed.
as §17

[4] = Detection of oral plasma exposure in rats; assay type: in vivo; settings: rat, SD rats, p.o. 10 mg/kg
Protocol: Detection of oral plasma exposure in rats: The compounds of the present invention have good oral in-vivo exposure in rats
After a single dose of 10 mg/kg oral administration of the compound to be tested in SD rats, blood samples were collected at different time points.
Standard curve and quality control sample preparation processing: The mixed reserve solution of the compound to be tested was taken and diluted with 50% methanol water into standard working solutions containing respective compounds with concentrations of 20, 40, 100, 200, 400, 1000, 2000, 4000, 10000, and 20000 ng/mL, as well as 60, 600, and 16000 ng/mL quality control working solutions. […] of a blank matrix was taken. […] of the standard curve working solutions and the quality control working solutions were added to prepare standard curves containing respective compounds with concentrations of 1.00, 2.00, 5.00, 10.00, 20.00, 50.00, 100.00, 200.00, 500.00, and 1000.00 ng/mL, as well as quality control samples with concentrations of 3.00, 30.00, and 800.00 ng/mL, respectively. 400 μL of acetonitrile (containing internal standard Verpmil of 2 ng/mL) was added. After vortex oscillation at 700 rcf for 10 minutes, centrifugation was conducted at 3300 rcf at 4° C. for 10 minutes. The supernatant was taken for LC-MS/MS analysis.
Unknown sample preparation processing: 50 μL of the sample to be tested was taken. 400 μL of acetonitrile (containing internal standard Verpmil of 2 ng/mL) was added. After vortex oscillation at 700 rcf for 10 minutes, centrifugation was conducted at 3300 rcf and 4° C. for 10 minutes. The supernatant was taken for LC-MS/MS analysis.

Chain of EGFR^L858R/T790M/C797S kinase (P00533 25-1210 T790M/C797S/L858R): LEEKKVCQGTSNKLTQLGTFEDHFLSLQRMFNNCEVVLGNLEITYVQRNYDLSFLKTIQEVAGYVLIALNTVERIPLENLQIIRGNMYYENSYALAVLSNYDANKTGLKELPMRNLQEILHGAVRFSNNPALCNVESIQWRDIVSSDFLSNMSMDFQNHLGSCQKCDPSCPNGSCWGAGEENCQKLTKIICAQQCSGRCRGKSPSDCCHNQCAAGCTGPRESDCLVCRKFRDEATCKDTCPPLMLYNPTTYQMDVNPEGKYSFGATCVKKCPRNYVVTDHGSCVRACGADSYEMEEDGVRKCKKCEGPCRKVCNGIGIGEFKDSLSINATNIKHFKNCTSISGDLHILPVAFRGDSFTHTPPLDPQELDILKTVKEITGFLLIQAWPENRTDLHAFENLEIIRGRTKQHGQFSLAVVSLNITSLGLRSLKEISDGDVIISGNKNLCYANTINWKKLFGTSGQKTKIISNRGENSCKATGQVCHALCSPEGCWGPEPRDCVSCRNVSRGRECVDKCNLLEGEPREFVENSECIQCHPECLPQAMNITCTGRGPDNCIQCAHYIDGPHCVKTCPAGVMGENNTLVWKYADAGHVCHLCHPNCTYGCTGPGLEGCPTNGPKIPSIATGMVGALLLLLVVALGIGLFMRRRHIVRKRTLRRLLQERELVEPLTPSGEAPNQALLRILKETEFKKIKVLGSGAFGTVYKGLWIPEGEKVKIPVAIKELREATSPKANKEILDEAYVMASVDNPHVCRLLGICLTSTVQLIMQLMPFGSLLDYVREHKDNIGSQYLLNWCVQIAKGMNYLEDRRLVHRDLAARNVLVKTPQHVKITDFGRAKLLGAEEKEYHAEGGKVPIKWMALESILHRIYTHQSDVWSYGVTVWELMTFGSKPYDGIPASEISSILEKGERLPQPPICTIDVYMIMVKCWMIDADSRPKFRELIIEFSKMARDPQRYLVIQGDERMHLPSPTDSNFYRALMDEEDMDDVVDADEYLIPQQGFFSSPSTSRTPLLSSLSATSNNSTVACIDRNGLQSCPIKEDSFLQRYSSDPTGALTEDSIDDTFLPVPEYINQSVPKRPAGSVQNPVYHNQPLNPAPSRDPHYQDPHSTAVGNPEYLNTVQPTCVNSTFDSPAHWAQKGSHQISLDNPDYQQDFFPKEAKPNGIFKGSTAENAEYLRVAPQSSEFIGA

Row | Structure (SMILES) | IC50 [1] [nM] | IC50 (BaF3-EGFR^WT cells) [nM] | IC50 [2] [nM] | IC50 [3] [nM] | IC50 (A431 cells) [nM] | Cmax [4] [ng/mL]
1 | COc1cc(N2CC3(CCN(C)CC3)C2)c(C)cc1Nc1ncc(Cl)c(Nc2cc(C)c(C)cc2P(C)(C)=O)n1 [Compound 5, (2-((5-Chloro-2-((2-methoxy-5-methyl-4-(7-methyl-2,7-diazaspiro[3.5]nonan-2-yl)phenyl)amino)pyrimidin-4-yl)amino)-4,5-dimethylphenyl)dimethylphosphine oxide] | 11 | – | – | 42.3 | > 500 | –
2 | CCc1cc(Nc2ncc(Cl)c(Nc3cc(C)c(C)cc3P(C)(C)=O)n2)c(OC)cc1N1CCC(N2C[C@@H](C)N(C)[C@@H](C)C2)CC1 [Compound 50, (2-((5-chloro-2-((5-ethyl-2-methoxy-4-(4-((3S,5R)-3,4,5-trimethylpiperazin-1-yl)piperidin-1-yl)phenyl)amino)pyrimidin-4-yl)amino)-4,5-dimethylphenyl)dimethylphosphine oxide] | 0.0707 | 942 | 186 | – | – | –
3 | CCc1cc(Nc2ncc(Cl)c(Nc3ccc(C)c(C)c3P(C)(C)=O)n2)c(OC)cc1N1CCC(N2C[C@H]3CN(C)C[C@H]3C2)CC1 [Compound 52, (6-((5-Chloro-2-((5-ethyl-2-methoxy-4-(4-((3aR,6aS)-5-methyloctahydropyrrol[3,4-C]pyrrol-2(1H)-yl)piperidin-1-yl)phenyl)amino)pyrimidin-4-yl)amino)-2,3-dimethylphenyl)dimethylphosphine oxide] | 0.0369 | 353 | 92.8 | 236 | 606 | –
4 | COc1cc(N2CCC(N3CCN(C)CC3)CC2)c(C)cc1Nc1ncc(Cl)c(Nc2cc(C)c(C)cc2P(C)(C)=O)n1 [Compound 12, (2-((5-Chloro-2-((2-methoxy-5-methyl-4-(4-(4-methylpiperazin-1-yl)piperidin-1-yl)phenyl)amino)pyrimidin-4-yl)amino)-4,5-dimethylphenyl)dimethylphosphine oxide] | 5.3 | – | – | 44.4 | > 500 | 1190
5 | COc1cc(N2CC3(CCN(C)CC3)C2)c(C)cc1Nc1ncc(Cl)c(Nc2ccc(C)c(C)c2P(C)(C)=O)n1 [Compound 32] | 0.92 | – | – | 55.4 | 962 | –

Second part, the compound after the results:

Row | IC50 [1] [nM] | IC50 (BaF3-EGFR^WT cells) [nM] | IC50 [2] [nM] | IC50 [3] [nM] | IC50 (A431 cells) [nM] | Cmax [4] [ng/mL] | Structure (SMILES)
6 | 0.0629 | 634 | 176 | – | – | – | CCc1cc(Nc2ncc(Cl)c(Nc3ccc(C)c(C)c3P(C)(C)=O)n2)c(OC)cc1N1CCC2(CC1)CC(N1CCCC1)C2 [Compound 48, (6-((5-chloro-2-((5-ethyl-2-methoxy-4-(2-(pyrrolidin-1-yl)-7-azaspiro[3.5]nonan-7-yl)phenyl)amino)pyrimidin-4-yl)amino)-2,3-dimethylphenyl)dimethylphosphine oxide]
7 | 0.86 | – | – | 47.8 | > 500 | – | CCc1cc(Nc2ncc(Cl)c(Nc3cccc(Cl)c3P(C)(C)=O)n2)c(OC)cc1N1CCC2(CC1)CC(N(C)C)C2 [Compound 19, (2-chloro-6-((5-chloro-2-((4-(2-(dimethylamino)-7-azaspiro[3.5]nonan-7-yl)-5-ethyl-2-methoxyphenyl)amino)pyrimidin-4-yl)amino)phenyl)dimethylphosphine oxide]
8 | 0.65 | – | – | 33.3 | > 500 | – | COc1cc(N2CCC3(CC2)CC(N(C)C)C3)c(Cl)cc1Nc1ncc(Cl)c(Nc2ccc(C)c(C)c2P(C)(C)=O)n1 [Compound 21, (6-((5-chloro-2-((5-chloro-4-(2-(dimethylamino)-7-azaspiro[3.5]nonan-7-yl)-2-methoxyphenyl)amino)pyrimidin-4-yl)amino)-2,3-dimethylphenyl)dimethylphosphine oxide]
